This note sets out measurements from patent US20240166652A1, “MODULATORS OF THE INTEGRATED STRESS PATHWAY” (Calico Life Sciences LLC, priority 2017, published 2024).

By EC50 is commonly meant the concentration needed to bring the measured effect to its halfway point.

The structures appear in SMILES notation. A value given as a limit tells only on which side of the number the result lay.

This assay deals with ATF4 luciferase reporter in HEK293T cells. The assay can be described thus: ATF4-Luc assay (ATF4 luciferase reporter, tunicamycin-treated HEK293T cells). It counts as cell-based, human. As to conditions: Homo sapiens, HEK-293T; HEK293T cells carrying the ATF4 luciferase reporter, 1 μg/mL tunicamycin, 7 hours. On the technique in general: In a reporter assay the amount or activity of a reporter protein is the signal.
For `Cc1cc(C)cc(OCC(=O)NC23CCC(NC(=O)COc4ccc(Cl)c(F)c4)(CC2)[C@@H](O)C3)c1` [Compound 470, 2-(4-chloro-3-fluorophenoxy)-N-{(2S)-4-[2-(3,5-dimethylphenoxy)acetamido]-2-hydroxybicyclo[2.2.2]octan-1-yl}acetamide], the EC50 lay within 10 to 50 nM.
`Cc1ccc(OCC(=O)NC23CCC(NC(=O)COc4ccc(Cl)c(F)c4)(CC2)[C@@H](O)C3)cc1C` [Compound 471, 2-(4-chloro-3-fluorophenoxy)-N-{(2S)-4-[2-(3,4-dimethylphenoxy)acetamido]-2-hydroxybicyclo[2.2.2]octan-1-yl}acetamide]: the EC50 is below 10 nM.
As to `O=C(COc1ccc2ccccc2c1)NC12CCC(NC(=O)COc3ccc(Cl)c(F)c3)(CC1)[C@@H](O)C2` [Compound 472, 2-(4-chloro-3-fluorophenoxy)-N-[(2S)-2-hydroxy-4-{2-[(naphthalen-2-yl)oxy]acetamido}bicyclo[2.2.2]octan-1-yl]acetamide], the concentration for a half-maximal effect (EC50) was below 10 nM.
Consider `O=C(COc1ccc(OC(F)(F)F)cc1)NC12CCC(NC(=O)COc3ccc(Cl)c(F)c3)(CC1)[C@@H](O)C2` [Compound 473, 2-(4-chloro-3-fluorophenoxy)-N-[(2S)-2-hydroxy-4-{2-[4-(trifluoromethoxy)phenoxy]acetamido}bicyclo[2.2.2]octan-1-yl]acetamide], for which the EC50 is below 10 nM.
In the case of `CCCS(=O)(=O)c1ccc(OCC(=O)NC23CCC(NC(=O)COc4ccc(Cl)c(F)c4)(CC2)[C@@H](O)C3)cc1` [Compound 474, 2-(4-chloro-3-fluorophenoxy)-N-[(2S)-2-hydroxy-4-{2-[4-(propane-1-sulfonyl)phenoxy]acetamido}bicyclo[2.2.2]octan-1-yl]acetamide], the 50% effective concentration (EC50) is above 2000 nM.
Then `Cc1ccc(OCC(=O)NC23CCC(NC(=O)COc4ccc(Cl)c(F)c4)(CC2)[C@@H](O)C3)cc1` [Compound 475, 2-(4-chloro-3-fluorophenoxy)-N-{(2S)-2-hydroxy-4-[2-(4-methylphenoxy)acetamido]bicyclo[2.2.2]octan-1-yl}acetamide], with below 10 nM.
On to `CS(=O)(=O)c1ccc(OCC(=O)NC23CCC(NC(=O)COc4ccc(Cl)c(F)c4)(CC2)[C@@H](O)C3)cc1` [Compound 476, 2-(4-chloro-3-fluorophenoxy)-N-[(2S)-2-hydroxy-4-{2-[4-(methanesulfonyl)phenoxy]acetamido}bicyclo[2.2.2]octan-1-yl] acetamide], for which the EC50 was 50 to 250 nM.
Consider `CC(C)(C)c1ccc(OCC(=O)NC23CCC(NC(=O)COc4ccc(Cl)c(F)c4)(CC2)[C@@H](O)C3)cc1` [Compound 477, 2-(4-tert-butylphenoxy)-N-{(3S)-4-[2-(4-chloro-3-fluorophenoxy)acetamido]-3-hydroxybicyclo[2.2.2]octan-1-yl}acetamide], for which the EC50 is above 2000 nM.
`CC(C)c1cc(OCC(=O)NC23CCC(NC(=O)COc4ccc(Cl)c(F)c4)(CC2)[C@@H](O)C3)cc(C(C)C)c1` [Compound 478, 2-(4-chloro-3-fluorophenoxy)-N-[(2S)-4-{2-[3,5-di(propan-2-yl)phenoxy]acetamido}-2-hydroxybicyclo[2.2.2]octan-1-yl]acetamide]: the EC50 is above 2000 nM.
With `O=C(COc1ccc(Cl)c(F)c1)NC12CC(NS(=O)(=O)Cc3ccccc3)(C1)C2` [Compound 479, 2-(4-chloro-3-fluorophenoxy)-N-{3-[(phenylmethanesulfonyl)amino]bicyclo[1.1.1]pentan-1-yl]acetamide], the EC50 is above 2000 nM.
Take `O=C(COc1ccc(Cl)c(F)c1)NC12CC(NS(=O)(=O)CCc3ccc(F)cc3)(C1)C2` [Compound 480, 2-(4-chloro-3-fluorophenoxy)-N-(3-{[2-(4-fluorophenyl)ethanesulfonyl]amino}bicyclo[1.1.1]pentan-1-yl)acetamide]: the EC50 was above 2000 nM.
Regarding `O=C(COc1ccc(Cl)c(F)c1)NC12CC(NS(=O)(=O)Cc3ccccc3F)(C1)C2` [Compound 481, 2-(4-chloro-3-fluorophenoxy)-N-(3-{[(2-fluorophenyl)methanesulfonyl]amino}bicyclo[1.1.1]pentan-1-yl)acetamide], the EC50 is above 2000 nM.
